# Legend:
# [1] = tested on: Δpdr5 yeast; assay: [PSI+] propagation in Δpdr5 yeast; format: cell-based; conditions: Suramin 100 µM, data not shown
# [2] = biological target: T1, Hsp104^N728A (Saccharomyces cerevisiae, UniProt P31539, N728A); assay: ATPase assay, Hsp104^N728A; format: biochemical, yeast; conditions: read-out: Hsp104^N728A ATPase activity relative to uninhibited protein
# T1 construct: made in house; host or cells: E. coli BL21-DE3 RIL
# Protocol: (§1) Wild-type or mutant Hsp104 (0.25 µM monomer) in ATPase buffer (20 mM HEPES-KOH pH 7.4, 20 mM NaCl and 10 mM MgCl2) was incubated for 60 or 10 min at 25°C in the presence of ATP (1 mM) as noted. ATPase activity was assessed by the release of inorganic phosphate determined by using a malachite green phosphate detection kit (Innova).
# Figure 7 Hsp104 variants respond differently to Suramin than Hsp104^WT. (A) Hsp104 variants (0.25 µM monomer) were incubated for 10 min with ATP (1 mM) and varying concentrations of Suramin. The amount of Pi produced was measured by absorbance at 635 nm. Absorbance values were normalized to the absorbance produced by each Hsp104 variant in the absence of inhibitor. Values represent mean ±S.D. (n = 6). (B) Urea-denatured firefly luciferase aggregates were incubated for 90 min at 25°C with Hsp104 variants (1 µM hexamer) plus 1∶1 mixtures of ATP and ATPγS (or ATP alone) and varying concentrations of Suramin. Luciferase reactivation was then determined and normalized to untreated disaggregase activity for each variant in the presence of ATPγS: ATP (or ATP alone). 1∶1 mixtures of ATP and ATPγS were used for Hsp104^WT and Hsp104^T317A, while ATP alone was used for Hsp104^A503V and Hsp104^N728A. Values represent mean ±S.D. (n = 6–12).
# [3] = biological target: T2, Hsp104 (Saccharomyces cerevisiae, UniProt P31539); assay: Gel filtration of Hsp104 (hexamerization); design: species or system yeast; conditions: Suramin 100 µM, with or without ATP 1 mM
# T2 construct: made in house; host or cells: E. coli BL21-DE3 RIL
# T2 sequence (P31539 whole entry): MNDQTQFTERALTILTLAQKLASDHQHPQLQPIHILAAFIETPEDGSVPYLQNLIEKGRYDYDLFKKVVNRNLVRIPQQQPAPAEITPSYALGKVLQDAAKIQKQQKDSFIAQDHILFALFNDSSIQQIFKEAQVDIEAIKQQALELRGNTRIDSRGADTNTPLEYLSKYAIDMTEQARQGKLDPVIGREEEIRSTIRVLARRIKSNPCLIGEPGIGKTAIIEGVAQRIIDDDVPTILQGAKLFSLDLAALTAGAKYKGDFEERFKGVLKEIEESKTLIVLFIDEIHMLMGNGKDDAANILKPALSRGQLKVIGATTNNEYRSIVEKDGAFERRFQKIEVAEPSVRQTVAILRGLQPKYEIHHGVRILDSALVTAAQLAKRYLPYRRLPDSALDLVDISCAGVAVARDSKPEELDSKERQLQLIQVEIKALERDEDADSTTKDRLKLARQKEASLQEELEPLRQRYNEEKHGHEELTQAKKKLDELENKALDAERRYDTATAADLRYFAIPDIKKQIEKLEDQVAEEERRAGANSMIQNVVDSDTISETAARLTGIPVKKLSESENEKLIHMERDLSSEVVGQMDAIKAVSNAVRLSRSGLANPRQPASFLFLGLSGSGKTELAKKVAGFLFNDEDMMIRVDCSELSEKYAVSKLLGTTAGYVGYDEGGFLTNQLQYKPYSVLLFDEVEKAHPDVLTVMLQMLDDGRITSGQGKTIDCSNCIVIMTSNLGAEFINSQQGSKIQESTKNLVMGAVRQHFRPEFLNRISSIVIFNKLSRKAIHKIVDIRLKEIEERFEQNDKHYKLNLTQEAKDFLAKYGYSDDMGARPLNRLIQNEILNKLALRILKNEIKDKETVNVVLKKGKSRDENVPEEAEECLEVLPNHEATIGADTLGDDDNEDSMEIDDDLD
# Protocol: Hsp104 was diluted into ATPase buffer with or without Suramin (100 µM) in the presence or absence of ATP (1 mM). The Hsp104 concentration was adjusted to 120 µM monomer and 20 µL of sample were fractionated by a Superdex 200 10/300 column (GE Healthcare Life Sciences, Piscataway, NJ) at room temperature and at a flow rate of 0.5 mL per minute in line with an Optilab T-rEX Refractive Interferometer (Wyatt Technologies, Santa Barbara, CA). Molecular weight markers were purchased from Bio-Rad Laboratories (Hercules, CA).
# [4] = tested on: Δpdr5 yeast; assay: Thermotolerance of Δpdr5 yeast; format: cell-based; conditions: Suramin 100 µM, data not shown
# [5] = biological target: T3, ClpB (Escherichia coli, UniProt P63284); assay: ClpB ATPase assay; format: biochemical, E. coli; conditions: for Normalized ATPase Activity: 10 min, ATP 1 mM, Figure 5A
# T3 construct: made in house
# T3 sequence (P63284 whole entry): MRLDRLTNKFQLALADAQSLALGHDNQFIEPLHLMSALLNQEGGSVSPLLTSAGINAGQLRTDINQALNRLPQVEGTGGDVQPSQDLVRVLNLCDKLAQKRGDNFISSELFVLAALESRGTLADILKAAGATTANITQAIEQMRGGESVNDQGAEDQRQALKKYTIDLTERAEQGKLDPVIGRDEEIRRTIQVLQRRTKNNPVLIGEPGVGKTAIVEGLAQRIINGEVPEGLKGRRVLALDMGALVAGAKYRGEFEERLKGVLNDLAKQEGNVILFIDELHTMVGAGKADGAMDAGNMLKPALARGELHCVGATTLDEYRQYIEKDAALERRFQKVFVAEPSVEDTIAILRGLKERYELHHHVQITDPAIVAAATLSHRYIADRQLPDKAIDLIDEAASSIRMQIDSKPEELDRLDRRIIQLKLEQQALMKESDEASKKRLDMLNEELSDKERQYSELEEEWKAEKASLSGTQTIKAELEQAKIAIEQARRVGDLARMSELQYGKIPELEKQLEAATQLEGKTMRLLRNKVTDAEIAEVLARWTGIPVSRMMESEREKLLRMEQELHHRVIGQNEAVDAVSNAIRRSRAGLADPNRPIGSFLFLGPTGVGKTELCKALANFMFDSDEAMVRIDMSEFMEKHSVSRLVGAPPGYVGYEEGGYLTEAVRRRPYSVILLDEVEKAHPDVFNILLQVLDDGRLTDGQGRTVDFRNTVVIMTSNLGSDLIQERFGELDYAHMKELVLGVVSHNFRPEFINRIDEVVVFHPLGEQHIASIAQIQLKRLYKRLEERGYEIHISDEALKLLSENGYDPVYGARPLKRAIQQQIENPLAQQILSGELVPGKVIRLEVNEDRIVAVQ
# Protocol: as §1
# (A) ClpB (0.25 µM monomer) was incubated for 10 min with ATP (1 mM) and varying concentrations of Suramin. The amount of Pi produced was measured by absorbance at 635 nm. Absorbance values were normalized to the absorbance produced by ClpB in the absence of inhibitor. Values represent mean ±S.D. (n = 6). (B) Urea-denatured firefly luciferase aggregates were incubated for 90 min at 25°C with ClpB (1 µM hexamer) in the presence of 1∶1 mixtures of ATP and ATPγS and varying concentrations of Suramin. Reactivation of luciferase was then determined by luminescence and converted to % WT ClpB activity (activity of 1 µM WT ClpB in the presence of ATP and ATPγS). Values represent mean ±S.D. (n = 6–12). TEXT PRINTED IN THE PICTURE: (A) Suramin: Normalized ATPase Activity: 1.03 ([Suramin] μM: 0); Normalized ATPase Activity: 0.76 ([Suramin] μM: 100); Normalized ATPase Activity: 0.78 ([Suramin] μM: 50); Normalized ATPase Activity: 0.60 ([Suramin] μM: 25); Normalized ATPase Activity: 0.59 ([Suramin] μM: 10); Normalized ATPase Activity: 0.65 ([Suramin] μM: 5); Normalized ATPase Activity: 1.01 ([Suramin] μM: 1) | (B) Suramin: Normalized Luciferase Refolding Activity: 1.00 ([Suramin] μM: 0); Normalized Luciferase Refolding Activity: 0.16 ([Suramin] μM: 100); Normalized Luciferase Refolding Activity: 1.03 ([Suramin] μM: 50); Normalized Luciferase Refolding Activity: 1.39 ([Suramin] μM: 25); Normalized Luciferase Refolding Activity: 2.23 ([Suramin] μM: 10); Normalized Luciferase Refolding Activity: 1.82 ([Suramin] μM: 5); Normalized Luciferase Refolding Activity: 1.02 ([Suramin] μM: 1)
# T1 sequence (P31539 whole entry N728A): as the sequence (P31539 whole entry) above, with N728A counted along it
smiles,measurement,setting,value
Cc1ccc(C(=O)Nc2ccc(S(=O)(=O)O)c3cc(S(=O)(=O)O)cc(S(=O)(=O)O)c23)cc1NC(=O)c1cccc(NC(=O)Nc2cccc(C(=O)Nc3cc(C(=O)Nc4ccc(S(=O)(=O)O)c5cc(S(=O)(=O)O)cc(S(=O)(=O)O)c45)ccc3C)c2)c1 [Suramin],Effect on [PSI+] propagation,[1],impaired neither
same,activity at 100 µM,[2],~75%
same,Effect on Hsp104 hexamerization (gel filtration elution profile),[3],does not interfere with hexamerization
same,Effect on thermotolerance,[4],impaired neither
same,Normalized ATPase Activity,"[5]; ClpB 0.25 µM monomer, Suramin 100 µM",0.76
same,Normalized ATPase Activity,"[5]; ClpB, Suramin 1 µM",1.01
same,Normalized ATPase Activity,"[5]; ClpB, Suramin 5 µM",0.65
same,Normalized ATPase Activity,"[5]; ClpB, Suramin 10 µM",0.59
same,Normalized ATPase Activity,"[5]; ClpB, Suramin 25 µM",0.60
same,Normalized ATPase Activity,"[5]; ClpB, Suramin 50 µM",0.78
same,inhibition at 100 µM,[5]; Suramin 100 µM,24%
